Here are results for 14 compounds from PubChem BioAssay (NCI).

Test systems include SNB-75 CNS; KM12 colon; MOLT-4 leukemia; UO-31 renal; SK-MEL-5 melanoma; SF-268 CNS; A498 renal; HCT-15 colon; OVCAR-3 ovarian; MALME-3M melanoma.
Common to all, as to experiment: NCI-60 cell line screen, 48 h

Structures are written as SMILES.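 1) Cells in 96-well plates. 2) Compound, 48 h, 5 concentrations. 3) Linear interpolation between surrounding doses. 4) Unreached endpoint = highest concentration. At the GI50, growth is halved. TGI is the concentration that stops growth completely.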

Consider `CC(=O)c1ccc(NC(=O)/C(=N\NC(N)=O)C(C#N)CC(C)(C)C=O)cc1` (stereo not given), for which the TGI in the assay on SNB-75 CNS, with KM12 colon, in the assay with MOLT-4 leukemia, in the assay on UO-31 renal, in the assay with SK-MEL-5 melanoma and in the assay with SF-268 CNS was > 100 µM in each case. The TGI with A498 renal and in the assay with HCT-15 colon was > 100 µM throughout.
As to `c1ccc(C(=NNc2nc3ccccc3[nH]2)c2ccccn2)nc1`, the TGI with KM12 colon was > 80.3 µM; in the assay with MOLT-4 leukemia, 0.062 µM; in the assay with UO-31 renal, 1.78 µM; in the assay on SK-MEL-5 melanoma it was 1.69 µM; in the assay on SF-268 CNS, > 55.3 µM; with OVCAR-3 ovarian it was > 100 µM. Also, the TGI in the assay on A498 renal was 4.94 µM; in the assay with HCT-15 colon, > 100 µM.
Take `Cc1cc(S(=O)(=O)O)ccc1N=Nc1ccc(N=Nc2c(O)ccc3ccccc23)c(C)c1`: the TGI with SNB-75 CNS was > 100 µM; in the assay on KM12 colon, 83.3 µM; with MOLT-4 leukemia it was > 100 µM; with MALME-3M melanoma, > 100 µM; in the assay with UO-31 renal, > 100 µM; with SK-MEL-5 melanoma, > 100 µM. Also, the TGI in the assay with SF-268 CNS, with OVCAR-3 ovarian and in the assay with HCT-15 colon was > 100 µM in each case.
Consider `O=C(CCc1cc(O)cc(O)c1)NCCc1ccc(O)c(O)c1`, for which the TGI in the assay with SNB-75 CNS, with KM12 colon, in the assay with MOLT-4 leukemia, in the assay with UO-31 renal, with SK-MEL-5 melanoma and in the assay with SF-268 CNS was > 100 µM in each case. Further, the TGI with OVCAR-3 ovarian, in the assay on A498 renal and in the assay on HCT-15 colon was > 100 µM throughout.
Take `O=C(NN=C1CCCCC1)Nc1ccccc1Cl`: the TGI was 29.6 µM in the assay with SNB-75 CNS; > 100 µM in the assay with KM12 colon; > 100 µM with MOLT-4 leukemia; > 100 µM in the assay on MALME-3M melanoma; > 100 µM in the assay on UO-31 renal; > 100 µM in the assay on SK-MEL-5 melanoma. Moreover, the TGI with SF-268 CNS was > 100 µM; with OVCAR-3 ovarian, 38.8 µM; in the assay on HCT-15 colon, > 100 µM.
Consider `Cc1ccc([N+](=O)[O-])cc1S(=O)(=O)Nc1ccc(C2=NN(c3ccc([N+](=O)[O-])cc3[N+](=O)[O-])C(c3ccccc3O)C2)cc1` (stereo not given), for which the TGI in the assay with SNB-75 CNS is > 100 µM; in the assay on KM12 colon, > 100 µM; in the assay on MOLT-4 leukemia, > 100 µM; with MALME-3M melanoma it was > 100 µM; in the assay with UO-31 renal, > 100 µM; in the assay on SK-MEL-5 melanoma, 61.1 µM. Also, the TGI is > 100 µM in the assay on SF-268 CNS, 61.3 µM with OVCAR-3 ovarian and > 100 µM in the assay with HCT-15 colon.
For `O=C(c1ccc(Cl)cc1)N(C(=S)N1CCN(c2ccccn2)CC1)c1ccccc1`, the TGI in the assay with SNB-75 CNS, with KM12 colon, with MOLT-4 leukemia, with MALME-3M melanoma, in the assay with UO-31 renal and in the assay on SK-MEL-5 melanoma was > 100 µM each time. The TGI in the assay on SF-268 CNS, with OVCAR-3 ovarian and with HCT-15 colon was > 100 µM in each case.
In the case of `CC(NC(=O)C(C)C(=O)NCc1ccc(C(F)(F)F)cc1)C(N)=O` (stereo not given), the TGI in the assay with SNB-75 CNS, in the assay with KM12 colon, in the assay on MOLT-4 leukemia, in the assay with MALME-3M melanoma, in the assay with UO-31 renal and in the assay with SK-MEL-5 melanoma was > 100 µM each time. The TGI in the assay with SF-268 CNS and in the assay with HCT-15 colon was > 100 µM throughout.
As for `COc1ccc(N2CCN(c3ccc4c(c3)NCC(=O)N4)CC2)cc1`, the TGI in the assay with SNB-75 CNS is 93.8 µM; in the assay with KM12 colon, 49 µM; in the assay on MOLT-4 leukemia, > 100 µM; in the assay with MALME-3M melanoma it was > 100 µM; with UO-31 renal, 70.4 µM; with SK-MEL-5 melanoma, > 100 µM. Also, the TGI with SF-268 CNS, in the assay with OVCAR-3 ovarian and in the assay with HCT-15 colon was > 100 µM throughout.
As to `Clc1ccc(OCC2NC3C=CC32)cn1` (stereo not given), the TGI in the assay on SNB-75 CNS, with KM12 colon, with MOLT-4 leukemia, with MALME-3M melanoma, in the assay with UO-31 renal and in the assay with SK-MEL-5 melanoma was > 100 µM throughout. In addition, the TGI in the assay with SF-268 CNS, in the assay with OVCAR-3 ovarian and with HCT-15 colon was > 100 µM throughout.
Turning to `CCCCCCC(CCl)c1sc(-c2csc(CCNC(=O)OC(C)(C)C)n2)nc1C(=O)OC` (stereo not given), the TGI came to 80.5 µM in the assay on KM12 colon; 24.2 µM in the assay on MOLT-4 leukemia; 67.8 µM in the assay with UO-31 renal; 16.1 µM with SK-MEL-5 melanoma; 52.4 µM with SF-268 CNS; 86.8 µM in the assay with OVCAR-3 ovarian. For the same compound, the TGI in the assay with A498 renal is > 100 µM; in the assay on HCT-15 colon, 73.5 µM.
Take `NCCCn1c2c(c3ccc([N+](=O)[O-])cc3c1=O)C(=O)c1cc3c(cc1-2)OCO3`: the GI50 is 0.321 µM with KM12 colon; < 0.01 µM with MOLT-4 leukemia; 0.488 µM in the assay on MALME-3M melanoma; < 0.01 µM with UO-31 renal; 0.0273 µM with SK-MEL-5 melanoma; 0.886 µM in the assay with OVCAR-3 ovarian. Besides, the GI50 in the assay on HCT-15 colon was 0.0282 µM. For the same compound, the TGI in the assay with KM12 colon is 4.42 µM; in the assay with MOLT-4 leukemia, > 100 µM; in the assay on MALME-3M melanoma, 2.82 µM; with UO-31 renal it was 0.2 µM; with SK-MEL-5 melanoma, 0.247 µM; with OVCAR-3 ovarian it was 3.21 µM. The compound further showed a TGI with HCT-15 colon of 0.201 µM.
For `CCC(=N\NC(N)=S)/C(C)=N/O`, the TGI with KM12 colon, in the assay on MALME-3M melanoma, in the assay with UO-31 renal, in the assay on SK-MEL-5 melanoma, in the assay on SF-268 CNS and with OVCAR-3 ovarian was > 100 µM in each case. For the same compound, in the assay with HCT-15 colon, the TGI was > 100 µM.
Regarding `O=C1c2ccccc2C(=O)N1C(=S)c1ccccc1`, the TGI with SNB-75 CNS, with KM12 colon, in the assay on MOLT-4 leukemia, with MALME-3M melanoma, in the assay with UO-31 renal and in the assay with SK-MEL-5 melanoma was > 100 µM in each case. Further, the TGI in the assay on SF-268 CNS, in the assay with OVCAR-3 ovarian and in the assay on HCT-15 colon was > 100 µM in each case.
